{
  "source": "patent US8592374B2",
  "about": "“Neurotrophic peptides” (Research Foundation for Mental Hygiene, Inc., priority 2007, dated 2013)",
  "key": {"normal adult mice [1]": {"system": "normal adult mice", "assay": "Open field, time in the centre of the arena (anxiety)", "type": "in vivo", "details": "25 nmol/day, first five minutes of familiarization session", "experimental": "(§1) For the compound treatment, mice (8 animals/group) received subcutaneous implants of extended release depot pellets containing P21 or P22 at 25 nmol/day for 35 days of continuous dosing (Innovative Research of America, USA). For the control group (8 animals), pellets consisted of the carrier polymer only. Mice were anesthetized with 2.5% Avertin (0.38 ml for a 25 g animal). Under sterile conditions, pellets were implanted subcutaneously along the anterolateral aspect of the right shoulder with a precision trochar (Innovative Research of America). After recovery of anesthesia, animals were transferred to the animal colony. No complications associated with the implantation and treatment were observed. All procedures on animals were conducted in accordance with approved protocols from our Institutional Animal Welfare Committee.\n(§2) The test used was an adaptation of the procedure previously described by Sargolini and collaborators (Sargolini, F., et al. Behav Brain Res 138 (2003):153-63). The testing apparatus was a classic open field (i.e. a PVC square arena, 50×50 cm, with walls 40 cm high). The open field was placed in a part of the room separated from the experimentator with a black opaque curtain. […] Object discrimination was calculated as follows: OD=(time spent close to new object)/(time spent close to new object)+(time spent close to old object)×100"}, "normal adult mice [2]": {"system": "normal adult mice", "assay": "One-trial object recognition test", "type": "in vivo", "details": "25 nmol/day", "experimental": "as §1\nIn the one-trial object recognition task, animals are exposed to two different objects which they have to identify as novel or familiar based on the memory of an earlier experience with one of the two objects they encountered in the same open field. The familiar object is explored shorter than the novel encountered one because the representation of the former is still available in memory. The one-trial object recognition task tests some aspects of episodic memory but is limited to memory of an object (what), the location of an object (where), and the context in which it was encountered (which). However, the temporal dimension of the episode remains inaccessible to the experimentator, and because of this reason this task in animals is considered a test of short term memory.\nas §2, with “high).” for “high). The open field was placed in a part of the room separated from the experimentator with a black opaque curtain.”"}, "normal adult mice [3]": {"system": "normal adult mice", "assay": "Spatial reference memory task in the water maze", "type": "in vivo", "experimental": "as §1\nSpatial reference learning and memory were evaluated in the water maze using a procedure adapted from that previously described by Morris et al. (Morris, R. G., et al. Nature 297 (1982): 681-3). The test required that mice used a spatial navigational strategy based on a spatial representation of the environment to find a fixed submerged escape platform. The procedure was performed in a 180 cm diameter circular tank. The pool was filled with water (21±1° C.) made opaque by adding white non-toxic paint. Acquisition started with the escape platform (15 cm diameter submerged 1 cm below water surface) in the Northwest quadrant and each animal was given 90 s to find the platform. […] At the end of each trial, the mouse was left on the platform for 20 seconds, then dried and returned to its home cage until the next trial. Five such acquisition trials were given on each day for four consecutive days. A test for retention, or probe trial (PT), was given 24 hours later. During the probe trial the mouse was allowed to swim in the tank without the escape platform for 60 seconds. This was followed by second and third probe trials 15 and 30 days after the first probe trial.\nThe measures of learning were the time and distance covered to reach the escape platform. For the probe trial, the tank was divided into four imaginary quadrants and a small zone where the escape platform had been. The measure of retention was calculated as the ratio of time spent or distance covered in target quadrant over that in the three other quadrants.\nMouse behavior in the water maze was monitored by a Samsung Digital Camera (SDC 4304) mounted to the ceiling and tracked and timed by a SMART (Pan Lab/San Diego Instruments) version 2.0.14 software."}, "[4]": {"system": "LIF-induced STAT3 phosphorylation at Tyr705 in HepG2 cells", "assay": "LIF-induced STAT3 phosphorylation in HepG2 cells (Western blot)", "type": "cell-based, human", "details": "15 min", "experimental": "HepG2 cells were treated with different concentrations of P21 together with 0.25 nM LIF for 15 min, and then the STAT3 phosphorylation at Tyr705 (pY-STAT3) was determined by Western blots. The pY-STAT3 value was normalized to total STAT3 expression. Data are presented as percentages of the value from cells treated with 0.25 nM LIF alone (100%). *p<0.05; **p<0.01.\nTo investigate the molecular mechanism of action of compound P21 in LIF signaling, HepG2 human hepatoma cell (ATCC, USA) at 80% confluence were treated with different concentrations of P21 and with 0.25 nM LIF (Peprotec, Inc., USA) for 15 min. The cells were lysed and subjected to Western blots developed with antibodies anti-phospho-Tyr 705 STAT3 and anti-STAT3 (Cell signaling Technology, USA).\nTo investigate whether P21 affects LIF signaling pathway, HepG2 cells were treated with different concentrations of P21 from 0.01 to 1000 nM along with 0.25 nM LIF for 15 min, and then measured STAT3 phosphorylation by Western blots. […] In HepG2 cells, 10 nM of P21 inhibited ˜30% of LIF-induced phosphorylation of STAT3 (p<0.005, student t-test; FIG. 15)."}, "[5]": {"assay": "General examination (physical state, body weight, exploratory activity, swim speed, floating)", "type": "in vivo, mice", "details": "25 nmol/day for 35 days"}},
  "note": "“Also recorded” adds a separate entry of the source. Peptide text beside a SMILES is read from it. * marks the point of attachment. X1 = NC(=O)C12CC3CC(CC(N*)(C3)C1)C2",
  "data": [
    {"smiles": "CC(=O)N[C@@H](CC(=O)O)C(=O)NCC(=O)NCC(=O)N[C@@H](CC(C)C)C(=O)NC12CC3CC(C1)CC(C(N)=O)(C3)C2", "note": "[Peptide P21, Ac-DGGL^AG-NH2] (Ac-DGGL-X1)", "values": [
      {"measurement": "level of anxiety (time in the center of the open field)", "setting": "normal adult mice [1]", "value": "spent more time in the center of the open field than control animals; also recorded: reduced anxiety level"},
      {"measurement": "percentage of discrimination (object discrimination)", "setting": "normal adult mice [2]; compared to other groups", "value": "significantly increased; also recorded: significantly improved the ability to discriminate a new object"},
      {"measurement": "time exploring the new object versus the familiar object", "setting": "normal adult mice [2]; test phase after 15 minute delay", "value": "clearly spent more time exploring the new object"},
      {"measurement": "time in the target quadrant, probe trials PT2 and PT3", "setting": "normal adult mice [3]; 15 and 30 days after the end of the treatment", "value": "beneficial effect disappeared; also recorded: showed no effect"},
      {"measurement": "time in the target quadrant, first probe trial", "setting": "normal adult mice [3]; 24 hours after last day of training", "value": "focus significantly more on the target quadrant; also recorded: improved performance in the first probe trial"},
      {"measurement": "escape latencies to reach the submerged platform (learning)", "setting": "normal adult mice [3]; training day 2 to 4, compared to control group", "value": "significantly reduced; also recorded: increased performance in the learning of spatial memory task"},
      {"measurement": "inhibition of LIF-induced phosphorylation of STAT3", "setting": "[4]; 10 nM P21, 0.25 nM LIF", "value": "~30", "unit": "%"},
      {"measurement": "LIF-induced STAT3 phosphorylation, concentration dependence", "setting": "[4]; 0.01 to 1000 nM P21, 0.25 nM LIF", "value": "dose-dependent manner; also recorded: inhibited slightly in a dose-dependent manner"},
      {"measurement": "floating behavior in the water maze task (sign of depression or locomotor impairment)", "setting": "[5]", "value": "no floating behavior was observed"},
      {"measurement": "swim speed", "setting": "[5]; water maze", "value": "no alteration; also recorded: did not induce any effect"}
    ]}
  ]
}
